The values that follow come from patent publication US20100168135A1, “Method of Inducing Cleavage of Amyloid Precursor Protein to Form a Novel Fragment” (priority 2008, published 2010).

The subject of one test is N2a cells. Briefly: Aβ production by N2a cultured cells, ELISA of tissue culture medium. The test is classed as cell-based, murine. The conditions noted are these: 24 hours treatment, vs control. The procedure: N2a is a murine neuroblastoma cell line that is known to produce amyloid peptides Aβ1-40 and Aβ1-42 in amounts measurable by ELISA assays. These forms of Aβ have been correlated with the pathology in AD brain and Aβ1-42 in particular is postulated to have the ability to block α7 nicotinic receptors and to produce direct neurotoxic effects. N2a cells were treated for 24 hours with ST101 added to the tissue culture medium. Tissue culture medium was collected and analyzed by ELISA for the presence of Aβ.
FIGS. 1A and 1B are bar graphs that depict the effect of the compound ST101 on Aβ production by N2a cells. FIG. 1A is a bar graph that depicts the Aβ concentration in the cell culture medium as a function of ST101 concentration compared to control. FIG. 1B a bar graph that depicts the ratio of Aβ1-42 to Aβ1-40 as a function of ST101 concentration compared to control.

A further test concerns 3xTg-AD mice. Briefly: Morris water maze in 3xTg-AD mice. The test is classed as in vivo, mouse. On the procedure:
(§1) 3xTg-AD mice of approximately one year of age were treated for 2 months with ST101. An average dose of 5 mg/kg/day was administered in drinking water (calculated dose, based on mean water consumption). Behavioral effects were tested by assessing performance on the Morris Water Maze. Biochemical effects were examined by measuring brain content of Aβ and APP by ELISA and Western Blot.
Behavioral Effects: Performance of 3xTg-AD Mice in the Morris Water Maze (MWM), adapted from Roozendaal et al., Proc. Natl. Acad. Sci. U.S.A. 100: 1328-1333 (2003).
The MWM tests both spatial memory (i.e. hippocampus dependent) and cued learning (i.e. non-hippocampal) in rodents. The maze is a circular tank filled with opaque water. Mice are placed in the water and must swim to find and escape onto a platform submerged 1.5 cm beneath the surface of the water. The time (in seconds) required to find the platform is recorded. Animals rely on visual cues in the room containing the tank in order to find the platform on successive challenges. Training was conducted daily for seven consecutive days.
Retention of training was assessed twice, 24 and 72 hours after the final training trial. Animals were subjected to a 60-second free swim in the tank with the platform removed. Parameters measured included (1) latency: time required to reach the former platform location and (2) crosses: the number of times the animal swam across the former platform location.

Test [1] concerns APP and C-terminal fragments in the brains of 3xTg-AD mice. The experiment in a line: Western blot of brain extracts with antibody CT20, 2-month treatment (Examples 4 and 5). The test is classed as in vivo, mouse. As to conditions: antibody CT20, brains of 3xTg-AD mice, 5 mg/kg/day for 2 months. The procedure:
as §1
To attempt to determine at what part in the Aβ processing/release pathway ST101 may be active, a series of Western blot analyses of brain extracts from the same mice were conducted. These Westerns blots examined intact APP as well as products of its post-translational processing and subsequent degradation.
FIG. 4 is a Western blot that depicts APP C-terminal fragments detected by antibody CT20 in the brains of ST101-treated (S) 3xTg-AD mice, relative to untreated (C) 3xTg mice-AD.
FIG. 5 is a Western blot that depicts APP and degradation fragments detected by antibody CT20 in the brains of ST101-treated (S) 3xTg-AD mice, relative to untreated (C) 3xTg-AD mice. “CT20” stands for full length APP species, and “Actin” stands for anti-beta-actin antibody as a protein loading control.
(In general: In western blotting, separated proteins are transferred to a membrane and probed.)

For test [2], the system named is APP C-terminal fragments in the brains of 3xTg-AD mice. The experiment in a line: Western blot of brains with antibody CT20, 10-month treatment (Example 7). The test is classed as in vivo, mouse. As to conditions: antibody CT20, 3xTg-AD mice, 5 or 1 or 0.1 mg/kg/day for 10 months; in some samples. On the procedure:
3xTg-AD mice of approximately 3 months of age were treated for 10 months with ST101. An average dose of 5 or 1 or 0.1 mg/kg/day was administered in drinking water (calculated dose, based on mean water consumption).
FIGS. 7A-C are Western blots that depict APP C-terminal fragments detected by antibody CT20 in the brains of ST101-treated (S) 3xTg-AD mice, relative to untreated (C) 3xTg-AD mice.

For test [3] the test system is unchanged. The experiment in a line: Western blot of brains with antibody 1565-1, 2.5-month treatment (Example 8). The test is classed as in vivo, mouse. As to conditions: antibody 1565-1, 3xTg-AD mice, 5 mg/kg/day for 2.5 months. On the procedure: 3xTg-AD mice of approximately 12 months of age were treated for 2.5 months with ST101. An average dose of 5 mg/kg/day was administered in drinking water (calculated dose, based on mean water consumption).
FIG. 8 is a Western blot that depicts C-terminal fragments detected by antibody 1565-1 (Epitomics Inc.) in the brains of ST101-treated (S) 3xTg-AD mice, relative to untreated (C) 3xTg mice-AD.

The next test concerns acetylcholine (ACh). Briefly: Nicotine-stimulated release of acetylcholine.
The subject of test [4] is extracellular ACh and dopamine. The experiment in a line: Extracellular ACh and dopamine concentrations in cerebral cortex and hippocampus. The test is classed as in vivo.
The test system of test [5] is rodent models of learning and memory. The conditions noted are these: cited from earlier work.
The subject of test [6] is Senescence Accelerated Mouse 8 (SAMP8). As to conditions: cited from earlier work.
Setting [7] is: 5 mg/kg/day for 2 months, at both 24 and 72 hours after training.

Consider `O=C1N=C2C=CC=CN2C12Cc1ccccc1C2` [ST101, spiro(imidazo[1,2-a]pyridin-2(3H)-one-3,2′-indan)], for which, in the test with N2a cells, the “Aβ1-40 in cell culture medium” value was “without major effects” and the “Aβ1-42 in cell culture medium” value was “significantly reduced”. Also, in the test with 3xTg-AD mice (setting [7]), the “crosses during retention testing” value is recorded as “increases in crosses” and the “latency during retention testing” value is recorded as “reductions in latency”. For the same compound, the “latency on successive days of the training” value with 3xTg-AD mice (5 mg/kg/day in drinking water for 2 months, vs controls) is given as “greater reductions in latency”. For the same compound, in test [1] (vs untreated), the “C83 C-terminal APP fragment” value is “substantial decrease”; the “C99 C-terminal APP fragment” value is “substantial decrease”; the “major APP degradation intermediate (~50 kDa)” value is “disappearance or significant reduction”; the “novel, longer C-terminal fragment of about 17 kDa” value is reported as “appearance”. The “full-length APP species (band shifts)” value in test [1] (some full-length species) is recorded as “slightly lowered molecular weight”. Further, in [2], the “major APP degradation intermediate (~50 kDa)” value is on record as “disappearance or significant reduction” and the “novel, longer C-terminal fragment of about 17 kDa” value is “appearance”. Besides, in test [3], the “longer C-terminal fragment of about 17 kDa” value is reported as “not observed”. Besides, the “APP C99 fragment” value in test [3] (vs untreated) is recorded as “disappearance or significant reduction”. For the same compound, in the test with acetylcholine (ACh), the “nicotine-stimulated release of acetylcholine (ACh)” value is listed as “potentiates”. Moreover, the “extracellular ACh concentrations” value in test [4] (cerebral cortex) is “increases”. Besides, in test [4] (hippocampus), the “extracellular concentrations of ACh” value was “increases” and the “extracellular concentrations of dopamine” value was “increases”. The “memory deficits induced by chemical amnesic agents” value in test [5] (methamphetamine, MK-801, scopolamine) is on record as “attenuates”. Moreover, the age-impaired memory result in test [5] (rodent models) is listed as “significantly improves”. Moreover, in test [6] (brain tissue), the “accumulation of Aβ-like deposits” value was “decreased”. Also, the “learning and memory functions” value in test [6] was “improvement”.
